Test results reported in US8012471B2, “Screening and treatment methods using IGS5 enzymes of the metalloprotease family” (Abbott Healthcare Products B.V., priority 1999, dated 2011).
pIC50: −log10 of the molar value. “Also recorded” adds a separate entry of the source. Marks after values point to notes of the source that are not given here. Starred links: 1 amine or outer side, 2 acyl side, 3 side chain; linkers in the order of their positions; H or OH if unused. Non-standard residues stand in square brackets, D forms with d. No end group written: not given here. *: point of attachment. Dpa = quench label, O=C([C@H](CNc1ccc([N+](=O)[O-])cc1[N+](=O)[O-])N[*:1])[*:2]; Mca = COc1ccc2c(CC(=O)*)cc(=O)oc2c1

Key:
[1] = target: T1, IGS5 polypeptide (His6-tagged IGS5 ectodomain) (Homo sapiens, UniProt Q495T6, V306M); experiment: Hydrolysis of vasoactive peptides and PACAP(1-27) by IGS5 polypeptide (HPLC); format: biochemical; conditions: for % Hydrolysis by IGS5 Polypeptide: 0.5 μM substrate, 2 h, 37° C.
T1 construct: made in house; host or cells: Spodoptera frugiperda Sf9 (baculovirus IGBV73)
T1 sequence (Q495T6 with tags, fused parts or gaps V306M): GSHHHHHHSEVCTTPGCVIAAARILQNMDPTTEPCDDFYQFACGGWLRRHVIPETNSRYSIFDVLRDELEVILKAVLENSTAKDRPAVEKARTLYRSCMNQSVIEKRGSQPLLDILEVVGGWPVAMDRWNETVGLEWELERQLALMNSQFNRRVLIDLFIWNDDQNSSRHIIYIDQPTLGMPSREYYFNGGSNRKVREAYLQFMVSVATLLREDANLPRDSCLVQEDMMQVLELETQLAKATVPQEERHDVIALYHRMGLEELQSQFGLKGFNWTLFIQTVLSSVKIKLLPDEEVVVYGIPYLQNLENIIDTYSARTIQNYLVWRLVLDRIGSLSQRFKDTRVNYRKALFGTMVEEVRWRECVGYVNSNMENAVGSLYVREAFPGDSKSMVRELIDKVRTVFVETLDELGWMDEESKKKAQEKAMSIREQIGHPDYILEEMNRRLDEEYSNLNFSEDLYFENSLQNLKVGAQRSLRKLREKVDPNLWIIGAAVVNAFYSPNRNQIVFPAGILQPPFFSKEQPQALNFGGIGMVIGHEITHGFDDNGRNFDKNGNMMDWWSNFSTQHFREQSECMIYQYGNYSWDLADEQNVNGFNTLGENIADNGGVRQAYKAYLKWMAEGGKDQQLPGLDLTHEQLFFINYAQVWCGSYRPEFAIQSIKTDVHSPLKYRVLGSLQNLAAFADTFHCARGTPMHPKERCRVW
Method: (§1) The enzymatic activity of IGS5 polypeptides of the invention was tested with regard to the metabolism of biologically active peptides. In particular it was tested whether these IGS5 polypeptides may act on a variety of vasoactive peptides known in the state of the art e.g. such like atrial natriuretic peptide (ANP), bradykinin, big endothelin (Big ET-1), endothelin (ET-1), substance P and angiotensin-1. In the context of the present invention in particular it was tested whether the IGS5 ectodomain, which is a novel human metalloprotease, hydrolyzes said vasoactive peptides. For comparison the assay was also performed for a known member of the metalloprotease family which was described earlier as soluble secreted endopeptidase (SEP) by Ikeda, Emoto et al. (J. Biol. Chem., Vol. 274 (1999): pp. 32469-32477). Furthermore, it was tested whether the activity of IGS5 to convert a Big-ET-1 analogue (the so-called 17 aa Big-ET) may be inhibited by reference compounds that are used to determine the inhibition properties with regard to enzymes having ECE and/or NEP-characteristics. […] It was then checked whether the activity of IGS5 to convert PACAP(1-27) may be inhibited by a compound known to be a IGS5 inhibitor. The compound used to test the inhibition of IGS5-activity on PACAP(1-27) was the active metabolite of (3S,2′R)-3-{1-[2′-(ethoxycarbonyl)-4′-phenylbutyl]-cyclopentane-1-carbonylamino}-2,3,4,5-tetrahydro-2-oxo-1H-1-benzazepine-1-acetic acid (compound Ia-2 from WO 02/094176).
The enzymatic reaction was subsequently terminated by heating to 95° C. for 5 min. After centrifugation (Heraeus Biofuge B, 3 min) the supernatant was subjected to HPLC
(§2) In order to separate the remaining substrate from the cleavage products reversed phase HPLC technique was used with a CC 125/4 Nucleosil 300/5 C18 RP column and a CC 8/4 Nucleosil 100/5 C18 precolumn (commercially available from Macherey-Nagel, Duren, Germany). Thus, 60 μl of the reaction samples obtained in Example 7B were injected into the HPLC, and the column was eluted at a flow rate of 1 ml/min by applying the following gradient and solutions: […]
(§3) Peptides were detected by absorbance at 214 nm (UV spectroscopy) and/or by fluorescence with an excitation wavelength of 328 nm and an emission wavelength of 393 nm.
% Hydrolysis: For detection of substrate cleavage, the percentage of hydrolysis was calculated by directly comparing the substance peak areas in HPLC traces of the sample without addition of any IGS5 enzyme activity (blank) and of the samples with addition of IGS5 enzyme (sample). % hydrolysis was calculated on basis of the respective peak areas. % hydrolysis=100*(1−(Asample/Ablank))

[2] = target: T2, SEP (soluble secreted endopeptidase) (Mus musculus, UniProt Q9JLI3); conditions: 100 μl assay volume; 10 μg partially purified SEP; 0.5 μM substrate; 12 h, 37° C.; cited from earlier work
T2 sequence (Q9JLI3 1-765): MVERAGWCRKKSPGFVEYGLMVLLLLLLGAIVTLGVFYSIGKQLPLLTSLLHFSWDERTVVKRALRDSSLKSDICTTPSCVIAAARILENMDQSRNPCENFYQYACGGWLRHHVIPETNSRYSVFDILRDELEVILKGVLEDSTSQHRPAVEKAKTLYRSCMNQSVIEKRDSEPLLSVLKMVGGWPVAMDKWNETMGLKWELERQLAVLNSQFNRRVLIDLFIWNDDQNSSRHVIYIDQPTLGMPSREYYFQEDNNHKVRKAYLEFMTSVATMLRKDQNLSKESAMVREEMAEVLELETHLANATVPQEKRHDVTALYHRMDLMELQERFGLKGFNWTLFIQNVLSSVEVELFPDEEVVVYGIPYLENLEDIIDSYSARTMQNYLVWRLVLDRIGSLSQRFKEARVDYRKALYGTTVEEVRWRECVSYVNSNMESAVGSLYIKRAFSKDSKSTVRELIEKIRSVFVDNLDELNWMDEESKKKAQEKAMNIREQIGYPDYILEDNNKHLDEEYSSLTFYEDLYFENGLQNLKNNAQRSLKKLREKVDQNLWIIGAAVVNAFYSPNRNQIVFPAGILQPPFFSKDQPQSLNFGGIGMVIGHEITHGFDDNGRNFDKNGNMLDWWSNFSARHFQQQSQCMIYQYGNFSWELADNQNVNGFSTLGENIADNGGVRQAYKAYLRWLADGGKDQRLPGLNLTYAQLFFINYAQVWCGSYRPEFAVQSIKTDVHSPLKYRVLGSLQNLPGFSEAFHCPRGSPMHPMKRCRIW

[3] = target: T1, IGS5 polypeptide (His6-tagged IGS5 ectodomain); experiment: Enzyme inhibition assay: IGS5 conversion of the Big-ET-1 analogue 17 aa Big-ET (HPLC); format: biochemical; conditions: for Inhibition of IGS5 (result in words): conversion of Big-ET-1 analogue 17 aa Big-ET; for pIC50: substrate 17 aa Big-ET, 60 min, 37° C., read-out: Inhibition of IGS5 polypeptide's activity to convert the Big-ET-1 analogue 17 aa Big-ET, IC50
Method: as §1
All test compounds were dissolved in DMSO at 10 mM and were further diluted with assay buffer.
A quantity of 70 μl, of the assay buffer, of 10 μl enzyme working solution (10 μg/ml) and of 10 μl test compound solution were mixed in an Eppendorf vial and preincubated at 37° C. for 15 minutes. Then, 10 μl substrate stock solution was added and the reaction mixture was incubated at 37° C. for 60 minutes to allow for enzymatic hydrolysis. Subsequently the enzymatic reaction was terminated by heating at 95° C. for 5 minutes. After centrifugation (Heraeus Biofuge B, 3 min) the supernatant was subjected to HPLC analysis.
as §2, §3
% Inhibition: The increasing fluorescence signal of the HPLC-peak of the peptide with the unquenched Mca-fluorophor after hydrolysis was taken as the basis for any calculation. This signal was compared for the samples with and without inhibitor and % inhibition was calculated on basis of the respective peak areas. If non labeled peptide substrates were used, basis of the calculation of % inhibition was the peak area of the remaining undegraded peptide substrate for an inhibitory test compound containing sample (inhib) in comparison to samples containing only peptide without addition of any IGS5 enzyme activity (blank) and to samples containing peptide and enzyme without inhibitor (control) according to the following equation % inhib=100*((Ainhib−Acontrol)/(Ablank−Acontrol)) All samples were run in duplicate and mean values were used. A standard inhibitor (10 nM and 100 nM Phosphoramidon) and/or a solvent control (0.1%) was added to each assay run.

[4] = 100 μl assay volume, 100 ng IGS5 polypeptide

Hydrolysis by IGS5 in vitro (result in words) [1] | Molecule | % Hydrolysis by IGS5 Polypeptide [1, 4] | % Hydrolysis by SEP (Ikeda, Emoto et al., 1999) [2] | Inhibition of IGS5 (result in words) [3] | pIC50 [3] | other results
– | Mca-Asp-Ile-Ala-Trp-Phe-Dpa-Thr-Pro-Glu-His-Val-Val-Pro-Tyr-Gly-Leu-Gly-COOH (Mca-DIAWF[Dpa]TPEHVVPYGLG-OH; SMILES CC[C@H](C)[C@H](NC(=O)[C@H](CC(=O)O)NC(=O)Cc1cc(=O)oc2cc(OC)ccc12)C(=O)N[C@@H](C)C(=O)N[C@@H](Cc1c[nH]c2ccccc12)C(=O)N[C@@H](Cc1ccccc1)C(=O)N[C@@H](CNc1ccc([N+](=O)[O-])cc1[N+](=O)[O-])C(=O)N[C@H](C(=O)N1CCC[C@H]1C(=O)N[C@@H](CCC(=O)O)C(=O)N[C@@H](Cc1c[nH]cn1)C(=O)N[C@H](C(=O)N[C@H](C(=O)N1CCC[C@H]1C(=O)N[C@@H](Cc1ccc(O)cc1)C(=O)NCC(=O)N[C@@H](CC(C)C)C(=O)NCC(=O)O)C(C)C)C(C)C)[C@@H](C)O) [17 aa Big ET 1] | 41% | – | – | – | –
– | substance P | 100% | >95% | – | – | –
– | O=C(O)C(Cc1ccc2c(c1)oc1ccccc12)NCP(=O)(O)O (centres unmarked) [CGS-35066] | – | – | not inhibited; also recorded: no inhibition | 5.89 | –
– | O=C(O)CNC(=O)C(CS)Cc1ccccc1 (centres unmarked) [Thiorphan] | – | – | not efficiently inhibited; also recorded: no inhibition | < 6.00 | –
– | CC(C)C[C@H](NP(=O)(O)O[C@@H]1O[C@@H](C)[C@H](O)[C@@H](O)[C@H]1O)C(=O)N[C@@H](Cc1c[nH]c2ccccc12)C(=O)O [Phosphoramidon] | – | – | inhibited; also recorded: inhibition | 7.74 | –
hydrolyze | CC[C@H](C)[C@@H]1NC(=O)[C@H](CCCNC(=N)N)NC(=O)[C@H](CC(=O)O)NC(=O)[C@H](CCSC)NC(=O)[C@H](CCCNC(=N)N)NC(=O)CNC(=O)CNC(=O)[C@H](Cc2ccccc2)NC(=O)[C@@H](NC(=O)[C@H](CO)NC(=O)[C@H](CO)NC(=O)[C@H](CCCNC(=N)N)NC(=O)[C@H](CCCNC(=N)N)NC(=O)[C@H](CC(C)C)NC(=O)[C@@H](N)CO)CSSC[C@@H](C(=O)N[C@@H](CC(N)=O)C(=O)N[C@@H](CO)C(=O)N[C@@H](Cc2ccccc2)C(=O)N[C@@H](CCCNC(=N)N)C(=O)N[C@@H](Cc2ccc(O)cc2)C(=O)O)NC(=O)CNC(=O)[C@H](CC(C)C)NC(=O)CNC(=O)[C@H](CO)NC(=O)[C@H](CCC(N)=O)NC(=O)[C@H](C)NC(=O)CNC1=O [ANP, atrial natriuretic peptide] | 5% | >95% | – | – | % Hydrolysis by IGS5 Polypeptide ([1]; 500 ng IGS5 polypeptide): 80%
hydrolyze | big endothelin (CSCSSLMDKECVYFCHLDIIWVNTPEHVVPYGLGSPRS) [Big ET-1] | – | 42% | – | – | –
– | RPPGFSPFR [Bradykinin, bradykinin] | 100% | – | – | – | % Hydrolysis by IGS5 Polypeptide ([1]; 10 ng IGS5 polypeptide): 62%
– | angiotensin-1 (DRVYIHPFHL) [Angiotensin 1] | 15*** % | >95% | – | – | Formation of angiotensin II on degradation by IGS5 [1]: ***degradation of angiotensin I does not result in formation of angiotensin II

Molecule | Hydrolysis by IGS5 in vitro (result in words) [1] | % Hydrolysis by IGS5 Polypeptide [1, 4] | % Hydrolysis by SEP (Ikeda, Emoto et al., 1999) [2] | Inhibition of IGS5 (result in words) [3] | pIC50 [3] | other results
CC[C@H](C)[C@H](NC(=O)[C@H](CC(=O)O)NC(=O)[C@H](CC(C)C)NC(=O)[C@H](Cc1c[nH]cn1)NC(=O)[C@@H]1CSSC[C@H](N)C(=O)N[C@@H](CO)C(=O)N[C@H]2CSSC[C@H](NC(=O)[C@H](CCC(=O)O)NC(=O)[C@H](CCCCN)NC(=O)[C@H](CC(=O)O)NC(=O)[C@H](CCSC)NC(=O)[C@H](CC(C)C)NC(=O)[C@H](CO)NC(=O)[C@H](CO)NC2=O)C(=O)N[C@@H](C(C)C)C(=O)N[C@@H](Cc2ccc(O)cc2)C(=O)N[C@@H](Cc2ccccc2)C(=O)N1)C(=O)N[C@H](C(=O)N[C@@H](Cc1c[nH]c2ccccc12)C(=O)O)[C@@H](C)CC [ET-1, endothelin] | hydrolyze | <30% | 92% | – | – | –
